From US8802597B2, “Herbicidal pyrimidines” (E I du Pont de Nemours and Company, priority 2003, dated 2014)
Like-named read-outs stand apart in the source and are kept apart here.

Legend:
Type in all cases: in vivo
[1] = tested on: morningglory (Ipomoea spp.); assay: Test A pre/postemergence; details: for pest or weed control at 125 g/ha / pest or weed control at 500 g/ha: Ipomoea, 240 h, read-out: Plant response rating, Morningglory
Summary of the method: (§1)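 Visual injury scores on a 0–100 scale, 100 being complete control, were assigned roughly ten days after treatment by comparison with untreated greenhouse controls. Test chemicals, formulated with surfactant in non-phytotoxic solvent, were sprayed onto soil preemergence and onto 1–2-leaf plants 2–10 cm tall postemergence.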

[2] = tested on: velvetleaf (Abutilon theophrasti); assay: Test A pre/postemergence; details: for pest or weed control at 125 g/ha / pest or weed control at 500 g/ha: Abutilon theophrasti, 240 h, read-out: Plant response rating, Velvetleaf
Summary of the method: as §1

[3] = tested on: crabgrass (Digitaria sanguinalis); assay: Test A pre/postemergence; details: for pest or weed control at 125 g/ha / pest or weed control at 500 g/ha: Digitaria sanguinalis, 240 h, read-out: Plant response rating, Crabgrass
Summary of the method: as §1

[4] = tested on: redroot pigweed (Amaranthus retroflexus); assay: Test A pre/postemergence; details: for pest or weed control at 125 g/ha / pest or weed control at 500 g/ha: Amaranthus retroflexus, 240 h, read-out: Plant response rating, Pigweed
Summary of the method: as §1

[5] = tested on: Italian ryegrass (Lolium multiflorum); assay: Test C postemergence
Summary of the method: (§2)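 Greenhouse pot test: seeds treated preemergence, or plants at 2–18 cm (1- to 4-leaf stage) treated postemergence, with compound in non-phytotoxic solvent plus surfactant. Visual rating versus untreated controls after 12–14 days, scale 0 (no effect) to 100 (complete control); dash means not tested.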

[6] = tested on: blackgrass (Alopecurus myosuroides); assay: Test C postemergence
Summary of the method: as §2

[7] = tested on: canarygrass (Phalaris minor); assay: Test C postemergence
Summary of the method: as §2

[8] = tested on: wild oat (Avena fatua); assay: Test C postemergence
Summary of the method: as §2

[9] = tested on: windgrass (Apera spica-venti); assay: Test C postemergence
Summary of the method: as §2

[10] = tested on: downy brome (Bromus tectorum); assay: Test C postemergence
Summary of the method: as §2

[11] = tested on: green foxtail (Setaria viridis); assay: Test C postemergence
Summary of the method: as §2

[12] = tested on: winter barley (Hordeum vulgare); assay: Test C postemergence
Summary of the method: as §2

[13] = tested on: wheat (Triticum aestivum); assay: Test C postemergence
Summary of the method: as §2

[14] = Postemergence, 125 g ai/ha, 0 to 100 scale (0 no effect, 100 complete control)
[15] = Postemergence, 500 g ai/ha, 0 to 100 scale (0 no effect, 100 complete control)
[16] = Preemergence, 125 g ai/ha, 0 to 100 scale where 0 is no effect and 100 is complete control, approximately ten days
[17] = Preemergence, 500 g ai/ha, 0 to 100 scale where 0 is no effect and 100 is complete control, approximately ten days
[18] = 125 g ai/ha, scale 0 to 100 (0 no effect, 100 complete control)
[19] = post-emergence, Postemergence, 125 g ai/ha, 0 to 100 scale (0 no effect, 100 complete control)
[20] = post-emergence, Postemergence, 500 g ai/ha, 0 to 100 scale (0 no effect, 100 complete control)
[21] = pre-emergence, Preemergence, 125 g ai/ha, 0 to 100 scale where 0 is no effect and 100 is complete control, approximately ten days
[22] = pre-emergence, Preemergence, 500 g ai/ha, 0 to 100 scale where 0 is no effect and 100 is complete control, approximately ten days

COC(=O)c1nc(-c2ccc(Br)cc2)nc(N)c1Br [Compound 129]
45: Plant response rating (scale of 0 to 100), Ryegrass, Italian ([5]; 16 g ai/ha) | Plant response rating (scale of 0 to 100), Blackgrass ([6]; 31 g ai/ha) | Plant response rating (scale of 0 to 100), Windgrass ([9]; 31 g ai/ha) | Barley plant response rating ([12]; 62 g ai/ha, scale 0 to 100 (0 no effect, 100 complete control)) | Barley plant response rating [12, 18]
15: Plant response rating, Pigweed [4, 17]
80: Plant response rating, Velvetleaf [2, 14] | Plant response rating, Pigweed [4, 14]
35: Plant response rating (scale of 0 to 100), Blackgrass ([6]; 16 g ai/ha) | Plant response rating (scale of 0 to 100), Oat, Wild ([8]; 31 g ai/ha) | Plant response rating (scale of 0 to 100), Barley ([12]; 16 g ai/ha) | Plant response rating (scale of 0 to 100), Wheat ([13]; 31 g ai/ha) | Plant response rating (scale of 0 to 100), Wheat ([13]; 62 g ai/ha) | Wheat plant response rating [13, 18]
55: Plant response rating (scale of 0 to 100), Ryegrass, Italian ([5]; 31 g ai/ha) | Plant response rating (scale of 0 to 100), Ryegrass, Italian ([5]; 62 g ai/ha)
90: Plant response rating, Velvetleaf [2, 15]
50: Plant response rating (scale of 0 to 100), Blackgrass ([6]; 62 g ai/ha) | Blackgrass plant response rating [6, 18]
0: Plant response rating, Morningglory [1, 16] | Plant response rating, Morningglory [1, 17] | Plant response rating, Velvetleaf [2, 16] | Plant response rating, Crabgrass [3, 14] | Plant response rating, Crabgrass [3, 15] | Plant response rating, Crabgrass [3, 16] | Plant response rating, Crabgrass [3, 17] | Plant response rating, Pigweed [4, 16] | Plant response rating (scale of 0 to 100), Canarygrass ([7]; 16 g ai/ha) | Plant response rating (scale of 0 to 100), Bromegrass, Downy ([10]; 16 g ai/ha) | Plant response rating (scale of 0 to 100), Bromegrass, Downy ([10]; 31 g ai/ha) | Plant response rating (scale of 0 to 100), Bromegrass, Downy ([10]; 62 g ai/ha) | Bromegrass, Downy plant response rating [10, 18] | Plant response rating (scale of 0 to 100), Wheat ([13]; 16 g ai/ha)
40: Plant response rating (scale of 0 to 100), Oat, Wild ([8]; 62 g ai/ha) | Oat, Wild plant response rating [8, 18] | Plant response rating (scale of 0 to 100), Windgrass ([9]; 16 g ai/ha) | Plant response rating (scale of 0 to 100), Foxtail, Green ([11]; 16 g ai/ha) | Plant response rating (scale of 0 to 100), Foxtail, Green ([11]; 31 g ai/ha) | Plant response rating (scale of 0 to 100), Foxtail, Green ([11]; 62 g ai/ha) | Plant response rating (scale of 0 to 100), Barley ([12]; 31 g ai/ha)
30: Plant response rating (scale of 0 to 100), Canarygrass ([7]; 31 g ai/ha) | Plant response rating (scale of 0 to 100), Canarygrass ([7]; 62 g ai/ha) | Canarygrass plant response rating [7, 18] | Plant response rating (scale of 0 to 100), Oat, Wild ([8]; 16 g ai/ha)
85: Plant response rating, Pigweed [4, 15]
5: Plant response rating, Velvetleaf [2, 17]
70: Plant response rating, Morningglory [1, 15]
60: Plant response rating, Morningglory [1, 14] | Ryegrass, Italian plant response rating [5, 18] | Plant response rating (scale of 0 to 100), Windgrass ([9]; 62 g ai/ha) | Windgrass plant response rating [9, 18] | Foxtail, Green plant response rating [11, 18]

CNc1nc(C2CC2)nc(C(=O)OC)c1Cl [Compound 79]
90%: pest or weed control at 125 g/ha [1, 19] | pest or weed control at 125 g/ha [2, 19] | pest or weed control at 500 g/ha [2, 22] | pest or weed control at 125 g/ha [4, 19] | pest or weed control at 125 g/ha [4, 21]
75%: pest or weed control at 500 g/ha [3, 20]
45%: pest or weed control at 125 g/ha ([5]; Lolium multiflorum, post-emergence, 125 g ai/ha, scale 0 to 100 (0 no effect, 100 complete control), read-out: Ryegrass, Italian plant response rating) | pest or weed control at 125 g/ha ([8]; Avena fatua, post-emergence, 125 g ai/ha, scale 0 to 100 (0 no effect, 100 complete control), read-out: Oat, Wild plant response rating)
95%: pest or weed control at 500 g/ha [1, 20] | pest or weed control at 500 g/ha [2, 20]
0: Plant response rating (scale of 0 to 100), Canarygrass ([7]; 16 g ai/ha) | Plant response rating (scale of 0 to 100), Oat, Wild ([8]; 16 g ai/ha) | Plant response rating (scale of 0 to 100), Bromegrass, Downy ([10]; 16 g ai/ha) | Plant response rating (scale of 0 to 100), Barley ([12]; 16 g ai/ha) | Plant response rating (scale of 0 to 100), Wheat ([13]; 16 g ai/ha)
40%: pest or weed control at 125 g/ha [3, 19] | plant injury at 125 g/ha ([13]; Triticum aestivum, post-emergence, 125 g ai/ha, scale 0 to 100 (0 no effect, 100 complete control), read-out: Wheat plant response rating)
30: Plant response rating (scale of 0 to 100), Bromegrass, Downy ([10]; 62 g ai/ha) | Plant response rating (scale of 0 to 100), Foxtail, Green ([11]; 62 g ai/ha) | Plant response rating (scale of 0 to 100), Barley ([12]; 31 g ai/ha) | Plant response rating (scale of 0 to 100), Wheat ([13]; 62 g ai/ha)
60: Plant response rating (scale of 0 to 100), Blackgrass ([6]; 62 g ai/ha)
55%: pest or weed control at 125 g/ha [1, 21]
20: Plant response rating (scale of 0 to 100), Blackgrass ([6]; 16 g ai/ha) | Plant response rating (scale of 0 to 100), Canarygrass ([7]; 31 g ai/ha) | Plant response rating (scale of 0 to 100), Bromegrass, Downy ([10]; 31 g ai/ha) | Plant response rating (scale of 0 to 100), Foxtail, Green ([11]; 16 g ai/ha) | Plant response rating (scale of 0 to 100), Foxtail, Green ([11]; 31 g ai/ha) | Plant response rating (scale of 0 to 100), Wheat ([13]; 31 g ai/ha)
25: Plant response rating (scale of 0 to 100), Canarygrass ([7]; 62 g ai/ha) | Plant response rating (scale of 0 to 100), Oat, Wild ([8]; 31 g ai/ha) | Plant response rating (scale of 0 to 100), Oat, Wild ([8]; 62 g ai/ha)
35: Plant response rating (scale of 0 to 100), Ryegrass, Italian ([5]; 16 g ai/ha) | Plant response rating (scale of 0 to 100), Ryegrass, Italian ([5]; 31 g ai/ha)
60%: pest or weed control at 125 g/ha [2, 21] | pest or weed control at 125 g/ha ([6]; Alopecurus myosuroides, post-emergence, 125 g ai/ha, scale 0 to 100 (0 no effect, 100 complete control), read-out: Blackgrass plant response rating) | pest or weed control at 125 g/ha ([11]; Setaria viridis, post-emergence, 125 g ai/ha, scale 0 to 100 (0 no effect, 100 complete control), read-out: Foxtail, Green plant response rating)
40: Plant response rating (scale of 0 to 100), Ryegrass, Italian ([5]; 62 g ai/ha) | Plant response rating (scale of 0 to 100), Blackgrass ([6]; 31 g ai/ha) | Plant response rating (scale of 0 to 100), Windgrass ([9]; 16 g ai/ha) | Plant response rating (scale of 0 to 100), Windgrass ([9]; 31 g ai/ha)
30%: pest or weed control at 125 g/ha [3, 21]
80%: pest or weed control at 500 g/ha [3, 22]
100%: pest or weed control at 500 g/ha [1, 22] | pest or weed control at 500 g/ha [4, 20] | pest or weed control at 500 g/ha [4, 22]
45: Plant response rating (scale of 0 to 100), Windgrass ([9]; 62 g ai/ha)
35%: pest or weed control at 125 g/ha ([7]; Phalaris minor, post-emergence, 125 g ai/ha, scale 0 to 100 (0 no effect, 100 complete control), read-out: Canarygrass plant response rating) | pest or weed control at 125 g/ha ([10]; Bromus tectorum, post-emergence, 125 g ai/ha, scale 0 to 100 (0 no effect, 100 complete control), read-out: Bromegrass, Downy plant response rating) | plant injury at 62 g/ha ([12]; Hordeum vulgare, post-emergence, 62 g ai/ha, scale 0 to 100 (0 no effect, 100 complete control), read-out: Barley plant response rating) | plant injury at 125 g/ha ([12]; Hordeum vulgare, post-emergence, 125 g ai/ha, scale 0 to 100 (0 no effect, 100 complete control), read-out: Barley plant response rating)
50%: pest or weed control at 125 g/ha ([9]; Apera spica-venti, post-emergence, 125 g ai/ha, scale 0 to 100 (0 no effect, 100 complete control), read-out: Windgrass plant response rating)
